Test results taken from paper PMC10706763, “Molecular and Functional Characterization of Pheromone Binding Protein 2 from Cyrtotrachelus buqueti (Coleoptera: Curculionidae)” (International Journal of Molecular Sciences, 2023).
Entries after “also recorded” stand apart in the source; their conditions may differ.

Assays:
[1] = test system: antennae of male C. buqueti adults; test: EAG assays after RNAi of CbuqPBP2; format: in vivo, Cyrtotrachelus buqueti; conditions: 72 h after dsRNA injection; chemical at 100 μg/μL in n-hexane
Method: To evaluate the function of CbuqPBP2 in C. buqueti olfaction, the dsRNA-injected, RNase-free water-injected, or non-injected male adults were subjected to EAG (Syntech, Hilversum, Netherlands) at 72 h after injection. Based on the results of the fluorescence competition binding assay, the chemicals (dibutyl phthalate, ethyl hexanoate, styrene and linalool) that bound with CbuqPBP2 were selected for electrophysiological experiments. The tested chemicals were diluted in n-hexane to prepare a solution at a concentration of 100 μg/μL, and n-hexane was used as a blank control.
The antenna for EAG detection was cut off and amputated at the base and tip. The basal and distal ends of the excised antenna were linked to a reference electrode and recording electrode by one teardrop of Spectra R360 electrically conductive gel, respectively. A filter paper strip (2 cm × 0.5 cm) loaded with ten microliters of each chemical solution was inserted into the sample tube (10 cm in length) as a stimuli source. An air-stimulus controller (CS-05 model) was used to deliver the stimulus. The stimulation time was 0.5 s, and the interval for antennal recovery was 30 s. The response of the antenna to each chemical was detected using a high-impedance amplifier (IDAC2) and analyzed using the EAG software (version 2.0) supplied with the instrument. The chemicals were tested randomly for each antenna. The antenna was stimulated one time with n-hexane before and after each chemical stimulation. Three to six antennae were measured for each chemical in independent experiments, and each antenna was tested three times. EAG responses were recorded in mV, and the relative EAG response of each chemical was calculated by using the following formula: Relative EAG response=EAGA/EAGCK1+EAGCK2/2 where EAG(A) represents the EAG response to the chemical; EAGCK1 and EAKCK2 represent EAG responses to n-hexane before and after each chemical stimulation, respectively.

CbuqPBP1 = test system: CbuqPBP1; set-up: method as in doi:10.1111/phen.12209; conditions: cited from earlier work
[2] = test system: virgin males of C. buqueti; set-up: method as in earlier work; conditions: compared with mated males and virgin females; cited from earlier work
CbuqPBP2 = CbuqPBP2 (Cyrtotrachelus buqueti, UniProt A0A1L3KPR5); test: Fluorescence competitive binding assay with 1-NPN probe; conditions: increasing ligand concentration, Figure 4C,D
Method: The fluorescent probe 1-NPN and the tested chemicals with a purity of at least more than 96% were purchased from Aladdin Biochemical Technology Co., LTD. (Shanghai, China). The fluorescence binding assay was carried out on a Lumina fluorescence spectrophotometer (Thermo Fisher Scientific, MA, USA) using a 1 cm light path quartz cuvette at 25 °C. All the slit widths for both excitation and emission were 5 nm. The 1-NPN and all the compounds tested were dissolved in chromatography-grade methanol to a final concentration of 1 mM. The CbuqPBP2 protein was dissolved in 50 mM Tris–HCl buffer at pH 7.4 to a final concentration of 2 μM. […] The scanning range was 350–550 nm at each concentration, and the maximum fluorescence intensities were plotted against the free ligand concentration.

Sequence of CbuqPBP2 (A0A1L3KPR5 entry or part of it): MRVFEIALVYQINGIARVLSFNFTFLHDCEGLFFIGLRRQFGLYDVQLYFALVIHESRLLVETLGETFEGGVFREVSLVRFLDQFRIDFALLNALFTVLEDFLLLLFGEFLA

SMILES: CCCCOC(=O)c1ccccc1C(=O)OCCCC [Dibutyl phthalate]
- EAG response of dsCbuqPBP2-treated male adults versus water-injected and non-injected controls [1]: significantly reduced
- binding affinity of CbuqPBP1 (CbuqPBP1): strongest binding affinity
- attraction effect [2]: more significant attraction effect

SMILES: CCCCCC(=O)OCC [Ethyl hexanoate]
- EAG response of dsCbuqPBP2-treated male adults versus water-injected and non-injected controls [1]: did not significantly decrease

SMILES: c1ccc2[nH]ccc2c1 [Indole]
- fluorescence intensity in competitive binding curve (CbuqPBP2): the fluorescence intensity enhanced as the ligand concentration increased

SMILES: C=CC(C)(O)CCC=C(C)C (stereo not drawn) [Linalool]
- EAG response of dsCbuqPBP2-treated male adults versus water-injected and non-injected controls [1]: not significantly reduced; also recorded: did not influence the EAG response

SMILES: CC(C)=CCC/C(C)=C/CC/C(C)=C/CC/C=C(\C)CC/C=C(\C)CCC=C(C)C [Squalene]
- fluorescence intensity in competitive binding curve (CbuqPBP2): the fluorescence intensity enhanced as the ligand concentration increased

SMILES: C=Cc1ccccc1 [Styrene]
- EAG response of dsCbuqPBP2-treated male adults versus water-injected and non-injected controls [1]: significantly reduced
- binding affinity of CbuqPBP1 (CbuqPBP1): lower binding affinity
